# Where “and” joins values, the source holds several entries; their conditions need not be identical. Equal entries are not always repeated. Where two headings read alike, the source gives them in different places.
# Key:
# [1] = Fluorescence emission pH titration of carboxy-SNAFL-1 (curve fits for Io, pKin and B); type: physicochemical; details: for I(543/623) (max) / I(543/623) (min) / pKin: at 21° C.
# From the text: Where the fluorescence intensity I=dh and I0 =dhT, the fluorescence intensity when the indicator is fully undissociated, Equation 4 becomes: [formula]
# In this equation the additional term B is the background fluorescence of the system and is an experimentally-derived value. I can also be the ratio of the fluorescence intensities of the protonated and isosbestic forms, where. I=I545 /Iisos
# The titration curves are shown for carboxy-SNAFL-1in distilled water and in a 0.67 M solution of NaCl. The solid lines are the theoretical curve fits using Equation 6. […] Experiments were carried out in 0.67 M NaCl because it is necessary to balance the osmotic pressure of the indicator solution in the sensor to that of the test solution. The osmotic pressure of the seawater is equivalent to 0.67 M NaCI.
# The solid lines in FIG. 2 are theoretical fits of Equation 5. The results for Io, pKin, and B are summarized in Table 2 together with typical values reported elsewhere [Walt, D. R, Gabor, G., Goyet, C. Anal. Chim. Actca 1993, 274, 47; DeGrandpre, M. D., Anal. Chem. 1993, 65 (4), 331; Whitaker, J. E., Haugland, R. P., Prendergast, R P. Anal. Biochem. 1991, 194, 330].
# [2] = Absorbance/emission spectra of carboxy-SNAFL-1 (excitation at 488 nm); type: physicochemical; details: for Emission (Ex. = 488 nm) (acid): acid form; for Emission (Ex. = 488 nm) (acid) / Emission (Ex. = 488 nm) (base) / Emission (Ex. = 488 nm) (isos): at 21° C.; for Emission (Ex. = 488 nm) (base): base form; for Emission (Ex. = 488 nm) (isos): isosbestic
# From the text: These peaks are centered at 540 nm and 620 nm and result from the protonated and deprotonated forms of the dyes respectively. This dual wavelength feature of the dye makes it particularly suitable for use in a ratiometric mode which accounts for system instabilities, such as photobleaching and lamp intensity fluctuations. This dye also has an isosbestic point at 625 run (Ex.=488 nm) which can be used for ratiometric measurements to assess the extent of dye photobleaching over time.
# The maxima centered at 540 nm and 620 nm arise from the protonated and deprotonated forms of the dye respectively. [drawing 3]
# The measurement system 100 comprises a Spectra Physics Model 162A-04 argon-ion laser 105 which provides excitation light radiation, typically at 488 nm. The excitation light is passed through a neutral density filter 110 and an angled dichroic mirror 115 to the proximal end 120 of an optical fiber 125 which conveys the excitation light to the distal end 130 of the fiber 125 and illuminates an optical interrogation zone 135 comprising a fluid sample volume with an indicator dye and analyte. In the presence of the analyte, the excitation light causes the indicator dye to emit emitted light energy in the optical interrogation zone 135, which emitted light is conveyed by the fiber 125 to the proximal end 120 and is deflected through 90° by the front surface 116 of the angled dichroic mirror 115. The emitted light is then focussed with lenses 145, filtered through a long wavelength, band-pass filter 150, and passed through a slit 155 into a monochromater 160. The resulting wavelength-dispersed signal is measured with a Pacific Instruments Model 126. photo-counting detection system. The intensity of the excitation light is measured in photon counts per second as either a function of time or of wavelength examined.
# [3] = 13 and 14; cited from earlier work
# [4] = 13 and 14; at 21° C.; cited from earlier work
# [5] = Sensor calibration for CO2, constants from theoretical fit (indicator in sensor); type: physicochemical; details: sensor (at 12° C.) (calculated)
# Experimental: The calibration and operation of the sensor operation of the sensor is based on the Severinghaus electrode principle. When carbon dioxide crosses the membrane, the pH of the indicator solution is given by the Henderson-Hasselbach equation: [formula]
# where aT =KH KM pCO2 KH /mol dm^3 atm^-1 is Henry's constant and KM is the membrane constant. Substituting Equation 7 into Equation 5 and rearranging gives: [formula]
# The dissolved CO2 concentration was determined using Henry's constant [Cox, J. D., Head A. J. J Chem. Soc. Faraday Trans., 1962, 58, 1839]. […] Also, for this calculation the membrane volume was not corrected for the porosity, or water content, of the membrane. These parameters would have opposite effects. In the calibration, aT was assumed to equal the dissolved CO2 in the bulk solution, such that KM =1. The sensitivity of the sensor is approximately ±1 ppm.
# The theoretical equation relating the fluorescence intensity. ratio to pCO2 was compared to test date and is shown by the solid curve in FIG. 6. The pHo value was calculated from Equation 5 using pKin while Io was derived from the above analysis. There was good agreement between experimental and theoretically-derived data.
# [6] = 13 and 14, at 21° C., cited from earlier work
# [7] = distilled water (25° C.), 488 nm excitation
substance,measurement,setting,value
5' (and 6')-carboxyseminaphthofluorescein [carboxy-SNAFL-1],effect of increasing ionic strength on maximum fluorescence intensity,[1]; distilled water vs 0.67 M NaCl,decreases with increasing ionic strength
same,effect of increasing ionic strength on pKin,[1]; distilled water vs 0.67 M NaCl,decreases pKin
same,I(543/623) (max),[1]; in 0.67M NaCl,5.27
same,I(543/623) (min),[1]; in 0.67M NaCl,0.129
same,pKin,[1]; in 0.67M NaCl,7.67
same,I(543/623) (max),[1]; in H2O,5.41
same,I(543/623) (min),[1]; in H2O,0.145
same,pKin,[1]; in H2O,8.01
same,isosbestic point,[2]; Ex.=488 nm,625 nm
same,"emission maximum, deprotonated form",[2]; [7],620 nm
same,"emission maximum, protonated form",[2]; [7],540 nm
same,"emission peak, deprotonated form",[2]; excited at 488 nm,620 nm
same,"emission peak, protonated form",[2]; excited at 488 nm,540 nm
same,Emission (Ex. = 488 nm) (acid),[2]; in 0.67M NaCl,542 nm
same,Emission (Ex. = 488 nm) (base),[2]; in 0.67M NaCl,620 nm
same,Emission (Ex. = 488 nm) (isos),[2]; in 0.67M NaCl,624 nm
same,Emission (Ex. = 488 nm) (acid),[2]; in H2O,545 nm
same,Emission (Ex. = 488 nm) (base),[2]; in H2O,618 nm
same,Emission (Ex. = 488 nm) (isos),[2]; in H2O,632 nm
same,ΔH°,[3],3.78 kcal/mol
same,ΔS°,[3],-22.6 cal mol^-1 K^-1
same,ΔpH/ΔT,[3],0.0192 ° C.^-1
same,I(543/623) (max),[4],6.13
same,I(543/623) (min),[4],0.09
same,pKin,[4],7.75
same,I(543/623) (max),[5],5.54
same,pKin,[5],7.98
same,Emission (Ex. = 488 nm) (acid),[5]; acid form,545 nm
same,Emission (Ex. = 488 nm) (base),[5]; base form,610 nm
same,Absorbance (acid),[6]; acid form,481 nm and 510 nm
same,Emission (Ex. = 488 nm) (acid),[6]; acid form,542 nm
same,Absorbance (base),[6]; base form,539 nm
same,Emission (Ex. = 488 nm) (base),[6]; base form,623 nm
same,Emission (Ex. = 488 nm) (isos),[6]; isosbestic,615 nm
